Measured values published in paper PMC5926414 (Japanese Journal of Cancer Research : Gann, 2000).
Where two headings read alike, the source gives them in different places. Square brackets hold non-standard residues; d marks the D form. Peptide text beside a SMILES is read from it. * marks the point of attachment. X1 = COC1=CC(=O)N(C(=O)[C@@H](O*)C(C)C)[C@H]1Cc1ccccc1; NMe2Val = CC(C)[C@@H](C(=O)*)N(C)C; NMeV = CN[C@H](C(=O)O)C(C)C

Tests used:
[1] = target: T1, bovine brain tubulin (Bos taurus, UniProt P81947+Q6B856); assay: biochemical
[2] = target: T1, bovine brain tubulin; details: read-out: IC50, inhibition of monosodium glutamate-induced tubulin polymerization; in 4% DMSO; ref 8 (Bai et al.); cited from earlier work
[3] = target: T2, porcine brain tubulin (Sus scrofa, UniProt P02550+P02554); assay type: binding
[4] = system: porcine brain tubulin; assay type: biochemical
[5] = target: T3, porcine brain microtubule protein (Sus scrofa, UniProt P02550+P02554); assay: biochemical
[6] = system: porcine brain tubulin; assay type: binding
[7] = system: porcine brain tubulin; details: ref 28 (Huang et al.); cited from earlier work
[8] = target: T3, porcine brain microtubule protein; assay: biochemical; details: read-out: inhibition of microtubule polymerization, agent alone
[9] = target: T2, porcine brain tubulin; assay: biochemical; assay type: binding

T2 sequence (P02550 whole entry): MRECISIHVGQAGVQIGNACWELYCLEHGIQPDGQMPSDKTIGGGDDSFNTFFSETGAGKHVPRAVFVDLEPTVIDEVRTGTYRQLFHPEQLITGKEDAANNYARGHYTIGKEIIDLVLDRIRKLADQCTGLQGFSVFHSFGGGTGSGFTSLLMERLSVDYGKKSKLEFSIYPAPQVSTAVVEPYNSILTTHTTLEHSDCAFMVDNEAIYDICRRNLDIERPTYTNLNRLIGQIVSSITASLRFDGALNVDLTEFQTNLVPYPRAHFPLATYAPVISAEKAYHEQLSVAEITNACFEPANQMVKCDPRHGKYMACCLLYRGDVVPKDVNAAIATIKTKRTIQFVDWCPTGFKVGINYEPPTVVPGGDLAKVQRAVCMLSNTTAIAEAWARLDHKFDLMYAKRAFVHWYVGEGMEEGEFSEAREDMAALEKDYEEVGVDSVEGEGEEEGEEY
T2 sequence (P02554 whole entry): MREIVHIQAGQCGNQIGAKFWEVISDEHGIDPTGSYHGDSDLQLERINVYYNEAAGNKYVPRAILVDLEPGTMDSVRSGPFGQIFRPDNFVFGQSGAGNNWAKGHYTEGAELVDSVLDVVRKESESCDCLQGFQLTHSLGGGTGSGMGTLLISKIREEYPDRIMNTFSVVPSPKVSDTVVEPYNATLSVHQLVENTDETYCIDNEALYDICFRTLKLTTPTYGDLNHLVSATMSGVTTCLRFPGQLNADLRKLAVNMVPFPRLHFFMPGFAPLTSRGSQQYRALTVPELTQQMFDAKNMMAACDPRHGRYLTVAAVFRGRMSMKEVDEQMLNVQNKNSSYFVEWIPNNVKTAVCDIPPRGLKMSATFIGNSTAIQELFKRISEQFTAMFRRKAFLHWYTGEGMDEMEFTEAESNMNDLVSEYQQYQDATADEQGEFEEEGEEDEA
T3 sequence (P02550 whole entry): as the sequence (P02550 whole entry) above
T3 sequence (P02554 whole entry): as the sequence (P02554 whole entry) above
T1 sequence (P81947 whole entry): as the sequence (P02550 whole entry) above, with S136L, G232S, A265I, T340S, E358Q counted along it
T1 sequence (Q6B856 whole entry): as the sequence (P02554 whole entry) above, with A55T, V170M, A296S, V316I, G440E, E441G counted along it

SMILES | IC50 [1] [µM] | effect on tubulin polymerization at high concentration [1] | inhibition at 3 µM ([1]; read-out: inhibition of monosodium glutamate-induced tubulin polymerization) [%] | IC50 [2] [µM] | displacement of [3H]TZT-1027 on tubulin [3] | displacement of [3H]VLB on tubulin [3] | inhibition of GTP hydrolysis on tubulin [4] | IC50 [5] [µM] | inhibition of [3H]GTP binding to tubulin [6] | inhibitory effect on microtubule polymerization at high concentration [5] | concentration with inhibitory effect on the binding of GTP to tubulin [7] | inhibition at 3 µM [8] [%] | Bmax, binding to tubulin (one binding site) [9] [nM/mg protein] | Kd [9] [µM]
CC[C@H](C)[C@@H]([C@@H](CC(=O)N1CCC[C@H]1[C@H](OC)[C@@H](C)C(=O)N[C@@H](Cc1ccccc1)c1nccs1)OC)N(C)C(=O)[C@@H](NC(=O)[C@H](C(C)C)N(C)C)C(C)C [dolastatin 10] | 2.8 | no further increase in inhibition | 88 | 1.2 | completely displaced | completely displaced | concentration-dependent inhibition | 2.3 ± 0.7 | concentration-dependent inhibition | – | – | – | – | –
CC[C@]1(O)C[C@H]2CN(CCc3c([nH]c4ccccc34)[C@@](C(=O)OC)(c3cc4c(cc3OC)N(C=O)[C@H]3[C@@](O)(C(=O)OC)[C@H](OC(C)=O)[C@]5(CC)C=CCN6CC[C@]43[C@@H]65)C2)C1 [VCR, vincristine] | – | – | – | – | the displacement was not complete | – | – | 1.6 ± 0.4 | – | slight decrease in inhibitory effect | – | – | – | –
CC(=O)O[C@H]1C(=O)[C@@]2(C)[C@H]([C@H](OC(=O)c3ccccc3)[C@]3(O)C[C@H](OC(=O)[C@H](O)[C@@H](NC(=O)c4ccccc4)c4ccccc4)C(C)=C1C3(C)C)[C@]1(OC(C)=O)CO[C@@H]1C[C@@H]2O [PTX, paclitaxel] | – | – | – | – | did not have remarkable inhibitory effects | did not have remarkable inhibitory effects | – | – | – | – | – | – | – | –
COC1=CC(=O)N(C(=O)[C@@H](OC(=O)[C@@H]2CCCN2C(=O)[C@@H]2CCCN2C(=O)[C@H](C(C)C)N(C)C(=O)[C@@H](NC(=O)[C@H](C(C)C)N(C)C)C(C)C)C(C)C)[C@H]1Cc1ccccc1 [dolastatin 15] (NMe2Val-V[NMeV]PP-X1) | – | – | – | – | did not have remarkable inhibitory effects | did not have remarkable inhibitory effects | concentration-dependent inhibition | – | – | – | – | – | – | –
CC[C@]1(O)C[C@@H]2CN(CCc3c([nH]c4ccccc34)[C@@](C(=O)OC)(c3cc4c(cc3OC)N(C)[C@H]3[C@@](O)(C(=O)OC)[C@H](OC(C)=O)[C@]5(CC)C=CCN6CC[C@]43[C@@H]65)C2)C1 [VLB, vinblastine] | 0.6 | aggregation | – | – | only incompletely | – | concentration-dependent inhibition | 2.7 ± 0.6 | no inhibitory effect | slight decrease in inhibitory effect | above 100 M | 64.7 | 6.0±0.26 | 0.2 ± 0.04
